Paper PMC8228141, “Antiprotozoal Nor-Triterpene Alkaloids from Buxus sempervirens L” (Antibiotics, 2021)
Where two headings read alike, the source gives them in different places.

What was measured:
[1] = tested on: Plasmodium falciparum (Pf) (intraerythrocytic forms, NF54 strain); assay: In vitro antiplasmodial activity; assay type: cell-based; settings: NF54 strain; for Pf IC50: mean of n = 2 (fluctuation range) or * n = 3 (SD); for IC50: read-out: Pf IC50 (in parentheses) (converted)
Procedure: (§1) After isolation, all alkaloids were tested in vitro for antiplasmodial and antitrypanosomal activity against Plasmodium falciparum (Pf) and Trypanosoma brucei rhodesiense (Tbr). Furthermore, to assess their selectivity against the parasites, cytotoxicity against L6 rat skeletal myoblasts, as mammalian control cells, was tested (Table 4).
(§2) In vitro assays for the bioactivity of the isolated Buxus-alkaloids against Tbr (bloodstream trypomastigotes, STIB 900 strain), Trypanosoma cruzi (Tc) (amastigotes, Tulahuen C4 strain), Leishmania donovani (Ldo) (amastigotes, MHOM-ET-67/L82 strain) and Pf (intraerythrocytic forms, NF54 strain), and cytotoxicity tests against mammalian cells (L6-cell line from rat-skeletal myoblasts), were performed at the Swiss Tropical and Public Health Institute (Swiss TPH, Basel, Switzerland) according to established standard protocols.

[2] = tested on: L6 rat skeletal myoblasts; assay: Cytotoxicity against mammalian control cells; assay type: cell-based
Procedure: as §1, §2

[3] = tested on: Plasmodium falciparum (Pf) (intraerythrocytic forms, NF54 strain); parameters: method as in PMID 24838073; settings: previous study; cited from earlier work
[4] = tested on: Trypanosoma brucei rhodesiense (Tbr) (bloodstream trypomastigotes, STIB 900 strain); assay: In vitro antitrypanosomal activity; assay type: cell-based; settings: STIB 900 strain; for Tbr IC50: mean of n = 2 (fluctuation range) or * n = 3 (SD); for IC50: read-out: Tbr IC50 (in parentheses) (converted)
Procedure: as §1
as §2, with “protocols. […] Such a pattern of activity was also observed in other studies.” for “protocols.”

[5] = tested on: Trypanosoma brucei rhodesiense (Tbr) (bloodstream trypomastigotes, STIB 900 strain); parameters: method as in PMID 29738470; settings: cited from earlier work

For “O-tigloylcyclovirobuxeine-B [Compound 1]”, the “Pf IC50” value [1] was 0.52 ± 0.14 µg/mL, the IC50 [1] was 1.05 µM and the “Cytotox. IC50” value ([2]; L6 cell line, mean of n = 2 (fluctuation range) or * n = 3 (SD)) was 9.4 ± 3.8 µg/mL. For the same compound, the IC50 ([2]; L6 cell line, read-out: Cytotox. IC50 (in parentheses) (converted)) was 19 µM, the “in vitro activity against Pf” value [3] was “strong and selective in vitro activity” and the “Tbr IC50” value [4] was 1.6 ± 0.55 µg/mL. The IC50 [4] was 3.2 µM.
For `CN[C@@H](C)[C@H]1[C@H](O)C[C@@]2(C)[C@@H]3C=C[C@H]4C(C)(C)[C@@H](N(C)C)CC[C@@]45C[C@@]35CC[C@]12C` [Compound 2, Cyclovirobuxeine-B], the “Pf IC50” value [1] was 1.07 ± 0.11 µg/mL, the IC50 [1] was 2.6 µM and the “Cytotox. IC50” value [2] was 14.7 ± 3.1 µg/mL. The IC50 [2] was 35.5 µM, the “Tbr IC50” value [4] was 0.6 ± 0.03 µg/mL and the IC50 [4] was 1.5 µM. For the same compound, the “in vitro activity against Tbr” value [5] was “highly active and selective”.
